Measurements as given in patent US12129279B2, “Antimicrobial peptides and use of the same for treating microbial infections” (TZU CHI UNIVERSITY, priority 2022, dated 2024).
Residues, ends and D or L forms follow the SMILES beside them. No end group written: not given here.

Experiments:
Assay type in all cases: cell-based
[1] = system: MDRAB (multidrug-resistant Acinetobacter baumannii); details: MDRAB (multidrug-resistant, 2 h)
Procedure: (§1) The antimicrobial activities of dK1, dK2, dK3, dK4 and dK5 were determined by bactericidal assays on laboratory strains of MRSA (methicillin-resistant Staphylococcus aureus) and MDRAB (multidrug-resistant Acinetobacter baumannii).
(§2) The bacteria were inoculated in Luria broth (LB) solid medium (BioShop Canada Inc., Ontario, Canada) (Focus Bioscience, Murrarrie, Australia). Single colonies were collected and inoculated in 8 mL of liquid medium, and the cultures were incubated overnight at 37° C., 200 rpm. On the next day, the bacterial cultures were centrifuged with a centrifuger (KUBOTA2800, KUBOTA, Osakashi, Japan) at 2500 rpm for 5 minutes at room temperature, and the supernatants were discarded. The pellets were mixed and suspended with 1×PBS (phosphate-buffered saline, PBS, pH 7.4) (PROTECH, Taipei, Taiwan). The step was repeated twice to wash the bacterial cells. After the washing step, the bacterial cells were then re-suspended in 1×PBS, and the concentrations of bacterial cells were adjusted to 1×10^7 CFU/mL.
(§3) In the bactericidal assay, 2700 μL of 1× PBS were mixed with 300 μL 1×10^7 CFU/mL bacteria suspension mentioned as negative control, and each of the solutions of dK1 to dK5 at different concentrations was mixed with 300 μL 1×10^7 CFU/mL bacteria suspension and 2700 μL of 1× PBS. The mixtures were incubated at 37° C., 200 rpm for 2 hours. After incubation, 100 μL of each of the control group samples and the experimental group samples were collected and put in Eppendorf centrifuge tubes, and followed by 10-fold serial dilution with 900 μL of 1× PBS. After the serial dilution, 100 μL of the sample from each group was inoculated on the LB solid medium. The experiments were carried out in triplicate for each group, and the LB solid media with samples were cultured at 37° C. for at least 18 hours. After overnight incubation at 37° C., bacterial colonies were counted. Bacterial survival rates of each group were determined as follows. % survival rate=[(Colonies formed from peptide-treated sample)/(Colonies formed from negative control)]×100%

[2] = system: MRSA (methicillin-resistant Staphylococcus aureus); details: 2 h
Procedure: as §1, §2, §3

in vitro = details: human
Procedure: For measuring the cytotoxicity of the antimicrobial peptides dK1, dK2 and dK3, a colorimetric 3-bis-(2-methoxy-4-nitro-5-sulfophenyl)-2H-tetrazolium-5-carboxanilide (XTT) dye reduction assay was employed. The cytotoxicity of the antimicrobial peptides of the invention were tested on Huh-7 and HeLa cells. The culture medium for Huh-7 is Dulbecco's modified eagle medium, DMEM (Gibco™, NY, USA) containing 10% fetal bovine serum (FBS) (Gibco™, NY, USA) 1% non-essential amino acid solution (NEAA) (Biological Industries, Beit HaEmek, Israel) and 1% streptomycin-penicillin solution (Gibco™, NY, USA). The culture medium for HeLa cells is Minimum Essential Medium (MEM) (Gibco™, NY, USA) containing 10% FBS (Gibco™, NY, USA), 1% sodium pyruvate (Gibco™, NY, USA), 1% NEAA (Biological Industries, Beit HaEmek, Israel) and 1% streptomycin-penicillin (Gibco™, NY, USA). […] The absorbance of the samples was measured at the 4th hour, and cell viability calculated to evaluate the cytotoxicity of the antimicrobial peptides. The absorbance of the samples was measured with an ELISA reader (EPOCH™, BioTek instruments, Inc., Winooski, USA) at a wavelength of 475 nm. The absorbance value of the positive control group was regarded as 0% cell viability, and the absorbance value of the negative control group was regarded as 100% cell viability. […]

Row | Compound | IC50 [1] | IC50 [2] | MBC (minimum bactericidal concentration) against MRSA [2] | MBC (minimum bactericidal concentration) against MDRAB [1] | cytotoxicity at 4 h, 2 μM (in vitro)
1 | CC(C)C[C@H](NC(=O)[C@H](CCCCN)NC(=O)[C@@H]1CCCN1C(=O)CNC(=O)[C@H](Cc1ccccc1)NC(=O)[C@H](CCCCN)NC(=O)[C@H](C)NC(=O)[C@@H]1CCCN1C(=O)[C@H](Cc1ccccc1)NC(=O)[C@H](CO)NC(=O)[C@H](C)NC(=O)[C@@H]1CCCN1C(=O)[C@H](CC(C)C)NC(=O)[C@@H](N)Cc1ccccc1)C(=O)N[C@@H](Cc1ccccc1)C(=O)N[C@@H](CS)C(=O)N[C@@H](CC(C)C)C(=O)N[C@H](C(=O)N[C@H](C(=O)N[C@@H](CCCCN)C(=O)N[C@@H](CCCCN)C(=O)N[C@@H](CS)C(=O)O)[C@@H](C)O)C(C)C [dK4] (H-FLPASFPAKFGPKLFCLVTKKC-OH; N-terminus and C-terminus assumed) | 8000 to 10000 nM | – | – | – | –
2 | FLAIPSKPLKVAKPLGFALIIL [dK5] | 20000 to 25000 nM | 10000 to 15000 nM | 30 to 40 µM | – | –
3 | IVRRIWRAWARRVRLVARIPAV [dK1] | ~167 nM | ~195 nM | 0.39 to 0.78 µM | 0.667 to 1.33 µM | –
4 | RLIAAWRAVIRARVRARRAPIF [dK2] | 200 to 250 nM | ~390 nM | 1.56 to 3.12 µM | 0.5 to 0.6 µM | –
5 | RPFIVRAWRRAVARRARAILPI [dK3] | 195 to 390 nM | 1560 to 3120 nM | 3.12 to 4.5 µM | 0.78 to 1.56 µM | 50%
